Key:
Format in all cases: in vivo
[1] = molecular target: NAd (Nor adrénaline) uptake (Rattus norvegicus, UniProt Q63380); test: Uptake "ex vivo" of NAd; details: dose not given
Excerpt: (§1) Activité sur les tests d'inhibition ou de recapture des principaux médiateurs adrénergiques.

[2] = molecular target: 5-HT (Sérotonine) uptake (Rattus norvegicus, UniProt P31652); test: Uptake "ex vivo" of 5-HT; details: dose not given, N.S. = not significant
Excerpt: as §1
(§2) Les résultats obtenus en comparaison avec ceux des antidépresseurs classiques sont rassemblés dans le tableau II: […]

[3] = molecular target: DA (Dopamine) uptake (Rattus norvegicus, UniProt P23977); test: Uptake "ex vivo" of DA; details: dose not given
Excerpt: as §1, §2

CN(C)CC(Oc1ccccc1)Oc1ccccc1 [MEDIFOXAMINE]
inactif: UPTAKE "EX VIVO" % d'inhibition NAd [1] | UPTAKE "EX VIVO" % d'inhibition 5-HT [2] | UPTAKE "EX VIVO" % d'inhibition DA [3]

Source: EP0226475A1, “Diphenoxyethyl amine derivatives, process for their preparation and pharmaceutical compositions containing them” (Albert ROLLAND S.A. Société dite, priority 1985, dated 1987)
